Molecular target: EP4 (Homo sapiens, UniProt P35408)
Test: EP4 binding (Ki / IC50)

Sequence of EP4 (P35408 whole entry): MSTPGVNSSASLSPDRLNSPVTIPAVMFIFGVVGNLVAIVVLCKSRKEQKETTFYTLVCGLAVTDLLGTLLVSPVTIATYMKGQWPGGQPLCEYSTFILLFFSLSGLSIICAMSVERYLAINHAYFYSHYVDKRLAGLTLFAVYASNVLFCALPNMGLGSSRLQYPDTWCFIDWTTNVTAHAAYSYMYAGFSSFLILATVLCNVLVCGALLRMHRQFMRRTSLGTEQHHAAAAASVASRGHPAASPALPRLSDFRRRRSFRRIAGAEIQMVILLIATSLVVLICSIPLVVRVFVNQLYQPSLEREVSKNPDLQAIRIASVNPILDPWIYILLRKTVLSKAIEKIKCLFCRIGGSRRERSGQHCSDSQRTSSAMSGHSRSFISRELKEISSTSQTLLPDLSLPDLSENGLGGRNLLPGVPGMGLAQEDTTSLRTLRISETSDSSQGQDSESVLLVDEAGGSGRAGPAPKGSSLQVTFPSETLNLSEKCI

IC50: > 10 µM
SMILES: CCCCC[C@H](O)c1ccc(N2C(=O)CC[C@@H]2CCCc2ccc(C(=O)O)s2)cc1

— patent US20170151261A1, “SKIN WOUND HEALING AND SCAR REDUCTION WITH PROSTAGLANDIN EP4 AGONIST COMBINATIONS” (Allergan, Inc., priority 2012, published 2017)
